Results from paper PMC6271714, “Hypotensive Effects and Angiotensin-Converting Enzyme Inhibitory Peptides of Reishi (Ganoderma lingzhi) Auto-Digested Extract” (Molecules, 2014).
Where a SMILES comes first, the peptide text is derived from it.

What follows are compounds tested against T1, Angiotensin-Converting Enzyme (ACE) (Homo sapiens, UniProt P12821) (assay: ACE inhibition assay (Dojindo ACE Kit-WST A502)). Details: synthesized peptides, six concentrations 10 to 100 μg/mL; read-out: IC50 Values (μM), ACE inhibition capacity.
T1 construct: purchased Dojindo Laboratories ACE Kit-WST A502
T1 sequence (P12821 30-1306, species assumed): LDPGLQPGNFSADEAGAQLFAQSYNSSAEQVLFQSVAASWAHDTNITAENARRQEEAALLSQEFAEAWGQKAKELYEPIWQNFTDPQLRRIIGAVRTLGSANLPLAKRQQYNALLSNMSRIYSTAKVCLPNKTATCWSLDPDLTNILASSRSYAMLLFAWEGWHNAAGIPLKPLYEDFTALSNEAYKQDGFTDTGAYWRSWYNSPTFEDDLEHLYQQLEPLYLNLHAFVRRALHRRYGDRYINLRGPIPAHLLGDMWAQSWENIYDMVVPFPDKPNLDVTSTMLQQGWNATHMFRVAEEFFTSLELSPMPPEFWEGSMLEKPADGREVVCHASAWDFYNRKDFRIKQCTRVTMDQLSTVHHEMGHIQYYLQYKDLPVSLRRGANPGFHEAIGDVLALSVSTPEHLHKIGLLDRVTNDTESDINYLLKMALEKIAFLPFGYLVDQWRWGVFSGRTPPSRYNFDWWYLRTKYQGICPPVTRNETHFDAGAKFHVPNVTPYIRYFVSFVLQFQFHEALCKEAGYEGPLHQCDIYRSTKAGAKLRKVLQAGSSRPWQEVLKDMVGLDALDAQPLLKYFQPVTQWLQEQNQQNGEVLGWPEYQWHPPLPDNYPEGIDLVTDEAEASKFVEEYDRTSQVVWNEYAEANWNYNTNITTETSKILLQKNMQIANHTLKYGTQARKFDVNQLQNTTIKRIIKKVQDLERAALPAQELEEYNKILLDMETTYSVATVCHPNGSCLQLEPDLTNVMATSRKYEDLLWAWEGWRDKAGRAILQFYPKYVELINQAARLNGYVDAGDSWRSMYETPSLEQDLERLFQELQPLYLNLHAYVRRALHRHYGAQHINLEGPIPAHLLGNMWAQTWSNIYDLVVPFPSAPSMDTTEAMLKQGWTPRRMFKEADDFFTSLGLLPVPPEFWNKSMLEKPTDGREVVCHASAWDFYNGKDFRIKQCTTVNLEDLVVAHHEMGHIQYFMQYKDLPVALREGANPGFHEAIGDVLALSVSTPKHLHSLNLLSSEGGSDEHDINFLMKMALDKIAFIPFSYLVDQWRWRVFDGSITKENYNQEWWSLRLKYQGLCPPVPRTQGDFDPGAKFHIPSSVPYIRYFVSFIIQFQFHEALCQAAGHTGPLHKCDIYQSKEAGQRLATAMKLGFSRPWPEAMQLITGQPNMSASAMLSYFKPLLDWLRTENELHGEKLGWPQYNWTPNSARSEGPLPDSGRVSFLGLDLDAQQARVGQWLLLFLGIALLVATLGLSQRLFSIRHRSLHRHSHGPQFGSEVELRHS
Format: biochemical
Procedure: Dojindo ACE Kit-WST A502 was used for testing the ACE-inhibitory activity. Principles of the kit were described in details in a previous report. Testing procedures were run strictly according to the manufacturer’s instructions using a 96-well plate, and inhibition rate was calculated based on the comparison of optical absorbance of sample-treated wells (As), control wells (Ac) and blank wells (Ab) as in the equation below. Absorbance was measured at 450 nm using microplate reader-Biotek-ELX800 (BioTek, Winooski, VT, USA): Inhibition rate (%) = [(Ac − As)/(Ac − Ab)]×100 (1)
For the peptides, six different concentrations of each peptide, ranging from 10 to 100 μg/mL, were assayed, and dose-response curves were plotted for the calculation of the IC50 values. IPP has been proven to be an ACE inhibitor [34] and thus was used as positive control (at concentrations ranging from 0.15 to 5 μg/mL).

Compound | IC50 [µM]
CC(C)C[C@H](NC(=O)[C@H](C)N)C(=O)O [Ala-Leu] (H-Ala-Leu-OH) | > 200
C[C@H](N)C(=O)N[C@@H](Cc1ccc(O)cc1)C(=O)O [Ala-Tyr] (H-Ala-Tyr-OH) | 163
CC[C@H](C)[C@H](NC(=O)[C@H](CO)NC(=O)[C@@H](N)CC(N)=O)C(=O)O [Asn-Ser-Ile] (H-Asn-Ser-Ile-OH) | 342
CC(C)C[C@H](NC(=O)[C@@H]1CCCN1C(=O)CN)C(=O)O [Gly-Pro-Leu] (H-Gly-Pro-Leu-OH) | > 500
CC[C@H](C)[C@H](N)C(=O)N[C@@H](CCCNC(=N)N)C(=O)O [Ile-Arg] | 73.7
CC[C@H](C)[C@H](N)C(=O)N1CCC[C@H]1C(=O)N[C@H](C(=O)O)[C@@H](C)O [Ile-Pro-Thr] (H-Ile-Pro-Thr-OH) | 73.1
CC(C)[C@H](NC(=O)[C@@H](N)CCCCN)C(=O)N1CCC[C@H]1C(=O)O [Lys-Val-Pro] (H-Lys-Val-Pro-OH) | > 500
CC[C@H](C)[C@H](NC(=O)[C@@H](N)CO)C(=O)O [Ser-Ile] (H-Ser-Ile-OH) | > 200
CC(C)C[C@H](NC(=O)[C@@H](N)CO)C(=O)O [Ser-Leu] (H-Ser-Leu-OH; N-terminus and C-terminus assumed) | > 200
N[C@@H](CO)C(=O)N[C@@H](Cc1ccc(O)cc1)C(=O)O [Ser-Tyr] (H-Ser-Tyr-OH) | 94.7
CC(C)C[C@H](NC(=O)[C@@H](N)[C@@H](C)O)C(=O)O [Thr-Leu] (H-Thr-Leu-OH) | > 200
